Test system: ICR mice
Assay: Oral glucose tolerance test (OGTT) in ICR mice
Assay type: in vivo
Details: normal fasted ICR mice; oral 50, 20, 5 and 1 mg/kg in 0.5% methylcellulose; glucose 2 g/kg; student's t-test p<0.05
Method: In order to evaluate the ability to control blood glucose in the body for the compound according to the present invention, an oral glucose tolerance test was conducted using ICR mice. The day before the test, normal ICR mice were separated into four per group, and were fasted for at least 16 hours. The body weight of each mouse was measured and recorded in the morning on the day of the test; The compound was prepared in a concentration of 5 mg/mL in 0.5% methylcellulose such that it could be administered at a dose of 50 mg/kg, and was then further diluted to be in concentrations of […] and administered at the same volume such that it can be administered at doses of 20 mg/kg, 5 mg/kg, and 1 mg/kg. Glucose was dissolved in drinking water and prepared in a concentration of 200 mg/mL such that it could be administered at a dose of 2 g/kg. Before administering the compounds, a small amount of blood of the mice was drawn from the caudal vein, and blood glucose was measured using ACCU-CHEK Active (Art. No. 2248891001), a blood glucose meter, and recorded. A solvent (0.5% MC) as a vehicle and the compounds prepared above were administered to all mice at a dose of 10 mL per 1 kg of body weight using a sonde. Glucose was further administered, and the blood glucose was measured in each mouse after 0.5 hours, 1 hour, and 2 hours. […]

Cc1ccccc1-c1cccc(CNc2ccc(S(=O)(=O)CC(=O)O)cc2)c1 [Example 1, 2-(4-((2′-methyl-biphenyl-3-yl)methylamino)phenylsulfonyl)acetic acid]
effect of lowering blood glucose (glucose AUC0-2 hr after glucose administration): significant effect of lowering blood glucose
